In patent US20250099633A1, “NTSR1-TARGETED RADIOPHARMACEUTICALS AND CHECKPOINT INHIBITOR COMBINATION THERAPY” (Fusion Pharmaceuticals Inc., priority 2022, published 2025):

Legend:
[1] = tested on: mouse NTSR1 overexpressing tumors; experiment: [177Lu]-Compound A biodistribution in CT-26 syngeneic model; type: in vivo; conditions: 6-48 hours post injection
Description: Tumor uptake was maintained at 2.5-7% injected dose/g (ID/g) from 6-48 hours post injection.

CT-26-mNTSR1 tumor [2] = experiment: Efficacy study in immunocompetent CT-26-mNTSR1 tumor bearing-mice (tumor volume); type: in vivo, mouse; conditions: different doses; CT-26-mNTSR1 syngeneic mice with an intact immune system
CT-26-mNTSR1 tumor [3] = experiment: Combination with checkpoint inhibitors, relative tumor volume in the CT-26-mNTSR1 mouse model; type: in vivo
Description: An in vivo study was conducted to test the effect of [^225Ac]-Compound A (as described in Example 3) combined with checkpoint inhibitors, α-CTLA-4 and α-PD-1 antibodies, on relative tumor volume in the CT-26-mNTSR1 mouse model.

CT-26-mNTSR1 tumor [4] = experiment: Combination with checkpoint inhibitors, survival in the CT-26-mNTSR1 mouse model; type: in vivo; conditions: for Overall survival: intravenous
Description: An in vivo study was conducted to test the effect of [^225Ac]-Compound A (as described in Example 3) combined with checkpoint inhibitors, α-CTLA-4 and α-PD-1 antibodies, on survival in the CT-26-mNTSR1 mouse model.
Separately, an in vivo study was conducted to test the effect of [^225Ac]-Compound A (as
described in Example 4) at a different dosage in combination with checkpoint inhibitors, α-CTLA-4 and α-PD-1 antibodies, on survival in the CT-26-mNTSR1 mouse model.

SMILES | Tumor uptake [1] | Efficacy in reducing tumor volume (CT-26-mNTSR1 tumor [2]) | Efficacy (tumor volume) (CT-26-mNTSR1 tumor [3]; 0.185 MBq/kg or 0.555 MBq/kg single-dose, intravenous, co-administered with 5 mg/kg of CTLA-4 or PD-1 or both) | Tumor regression, duration (CT-26-mNTSR1 tumor [3]; 0.555 MBg/kg dose, co-administration with both CTLA-4 and PD-1) | Tumor volume (CT-26-mNTSR1 tumor [3]; 0.555 MBg/kg dose, co-administration with both CTLA-4 and PD-1, compared to vehicle control and 225Ac-radiopharmaceutical alone groups) | Tumor volume (CT-26-mNTSR1 tumor [3]; 0.555 MBq/kg single-dose, intravenous, alone, relative to the vehicle control group) | Overall survival (CT-26-mNTSR1 tumor [4]; 0.185 MBq/kg single-dose, with 5 mg/kg α-CTLA-4 or α-PD-1 (or both), compared to vehicle control or [225Ac]-Compound A alone) | Overall survival (CT-26-mNTSR1 tumor [4]; 0.555 MBq/kg single-dose, with 5 mg/kg α-CTLA-4 or α-PD-1, compared to the vehicle and [225Ac]-Compound A single treatment group) | Survival (CT-26-mNTSR1 tumor [4]; 0.555 MBq/kg, co-administration with both α-CTLA-4 and α-PD-1, compared to vehicle control or [225Ac]-Compound A with or without either antibody)
COc1cccc(OC)c1-c1cc(C(=O)NC2(C(=O)O)C3CC4CC(C3)CC2C4)nn1-c1ccc(C(=O)N(C)CCCN(C)CCCN(C)C(=O)CN2CCN(CC(=O)O)CCN(CC(=O)O)CCN(CC(=O)O)CC2)cc1C(C)C (stereo not drawn) [[177Lu]-Compound A, metal not drawn] | 2.5-7 % injected dose/g (ID/g) | – | – | – | – | – | – | – | –
COc1cccc(OC)c1-c1cc(C(=O)NC2(C(=O)O)C3CC4CC(C3)CC2C4)nn1-c1ccc(C(=O)N(C)CCCN(C)CCCN(C)C(=O)CN2CCN(CC(=O)O)CCN(CC(=O)O)CCN(CC(=O)O)CC2)cc1C(C)C (stereo not drawn) [[^225Ac]-Compound A, metal not drawn] | – | enhanced efficacy in reducing tumor volume | increased efficacy was observed including tumor suppression | ≥ 40 days post-treatment | significantly smaller tumor volume | greater reductions in tumor volume | increased overall survival | increased overall survival | increased survival
